From US20220226484A1, “THERAPEUTIC PEPTIDES” (COHBAR, INC., priority 2019, published 2022)
Positions of bridges follow the written chain, without caps; N, C: chain ends. Non-standard residues stand in square brackets, D forms with d. Primed or numbered codes have the meaning given here. Chains are numbered I, II in the order given. No end group written: not given here. PEG12′ = not defined here

Legend:
Format in all cases: cell-based
C2C12 Mouse Myoblasts = assay: Glucose utilization; conditions: metformin 1 mM
Method: The effect of the peptides on glucose metabolism can be assessed using an assay of glucose utilization in cultured cultured cells such as mouse myoblasts. Peptides were initially prepared as 10 mM stock in DMSO and used at a final concentration of 10 μM (0.1% DMSO). C2C12 mouse myoblast cell line was purchased from American Type Culture Collection (Manassas, Va.). C2C12 cultures were maintained at 37° C. in a humidified atmosphere of 5% CO2/95% air with medium changes every second day. C2C12 cells were grown in DMEM (1 g/L glucose) supplemented with 10% FBS with 100 IU/ml penicillin and 100 μg/ml streptomycin. C2C12 cells were seeded at 7,000 cells per well on 96-well plates and cultured to confluence. Once the cell reached confluence the media was changed to DMEM (1 g/L glucose) supplemented with 2% HS with 100 IU/ml penicillin and 100 μg/ml streptomycin and maintained at 37° C. in a humidified atmosphere of 5% CO2/95% air. 5 days post-induction of differentiation fresh DMEM (1 g/L glucose) supplemented with 2% HS with 100 IU/ml penicillin and 100 μg/ml streptomycin was added to cultures. Cells were maintained at 37° C. in a humidified atmosphere of 5% CO2 and 95% air for 5 hours. After 5 hours test peptides at 10 μM or controls (0.5 mM or 1 mM metformin in 1% DMSO) prepared in fresh differentiation medium were added to cells and the cultures were maintained at 37° C. in a humidified atmosphere of 5% CO2/95% air for 18-22 hours. At the end of the incubation culture media was removed from the cells and the remaining glucose concentration was measured using a Glucose Assay kit (Abcam) according to the manufacturer's instructions, using a Cytation 3 plate reader at 570 nm (BioTek, Winooski, Vt.). Glucose concentrations in the medium were calculated relative to 0.1% DMSO treated control cells. The relative standard deviation of the result for the 0.1% DMSO treated control was <20%. Metformin was used as a positive control for reduction of glucose levels (increased glucose utilization glucose levels for treatment with metformin (1 mM) treatment were <20% of the 0.1% DMSO treated control value. The results are reported in Table 7.

3T3-L1 Mouse Adipocytes = assay: Insulin-dependent effect on free fatty acid levels in cultured mouse adipocytes; conditions: 3 hours; for Free Fatty Acid Levels, MEAN % ISO, +Insulin: peptide 10 μM + insulin 0.25 nM, percent of isoproterenol (0.1 nM)+insulin (0.25 nM); for Free Fatty Acid Levels, MEAN % ISO, −Insulin: peptide 10 μM alone, percent of isoproterenol (0.1 nM) treated control cells
Method: The effect of the peptides on fatty acid metabolism was assessed in the absence and presence of insulin using an assay of free fatty acid levels in cultured cells such as mouse adipocytes. Peptides were initially prepared as 10 mM stock in DMSO and used at a final concentration of 10 μM (0.1% DMSO). […] Insulin (0.25 nM) was used as a partial inhibitor and insulin (10 nM) was used as a potent inhibitor of isoproterenol stimulated fatty acid production. Mouse 3T3-L1 cells purchased from ZenBio (Research Triangle Park, N.C.) were seeded at 3,000 cells per well on 96-well plates in Pre-Adipocyte Medium (Zen-Bio) and grown to confluence at 37° C. in a humidified atmosphere of 5% CO2/95% air. Two days after confluence, cells were placed in Adipocyte Differentiation Medium (Zen-Bio) and cultured for three additional days at 37° C. in a humidified atmosphere of 5% CO2/95% air. The culture medium was then partially replaced with Adipocyte Maintenance Medium (Zen-Bio) and the cells maintained at 37° C. in a humidified atmosphere of 5% CO2/95% air with partial medium replacement every other day. At 12 day of differentiation, 96-well cultures were transferred to Adipocyte Maintenance Medium without insulin and placed at 37° C. in a humidified atmosphere of 5% CO2/95% air for two days. Following this incubation period, the medium was removed from 14 day differentiated cultures and replaced with Assay Buffer (Zen-Bio) containing peptides (10 μM), insulin (0.25 nM or 10 nM), isoproterenol (0.1 nM) as appropriate. […] isoproterenol was added to all wells except untreated controls. Insulin at 0.1 nM and 10 nM was added to control wells. Peptides (10 μM) in the absence or presence of insulin (0.25 nM) were added to test wells. Cells in the presence of compounds were placed at 37° C. in a humidified atmosphere of 5% CO2/95% air for 3 hours. At the end of the final 3 h incubation, conditioned assay buffer was removed from each well and place in a fresh 96-well plate for quantitation of free fatty acid content. Free fatty acid concentrations in the assay buffer samples were determined using a Free Fatty Acid Assay kit (Zen-Bio) according to the manufacturer's instructions using a Cytation 3 plate reader at 540 nm (BioTek, Winooski, VD. Absorbance values were corrected for untreated background and expressed as a percent of isoproterenol (0.1 nM) treated control cells for peptides alone or isoproterenol (0.1 nM)+insulin (0.25 nM) for peptides in presence of insulin (0.25 nM). Treatment with isoproterenol […] alone was used as the free fatty acid level stimulatory control. The relative standard deviation of the isoproterenol control was <10%. […] Free fatty acid levels for insulin (10 nM) treatment were <5% of the isoproterenol control value. Free fatty acid levels for insulin (0.25 nM) treatment were 60-80% of the isoproterenol control value.

H4IIE Rat Hepatoma Cells = assay: Insulin-dependent effect on glucose production by cultured rat liver cells; conditions: 24 hour; for Glucose Levels, MEAN % Control, +Insulin: peptide 10 μM + insulin 800 pM, percent of insulin (800 pM); for Glucose Levels, MEAN % Control, −Insulin: peptide 10 μM alone, percent of untreated control cells
Method: The effect of the peptides on glucose production was assessed in the absence and presence of insulin using an assay of glucose levels in cultured cells such as rat hepatocytes. Peptides were initially prepared as 10 mM stock in DMSO and used at a final concentration of 10 μM (0.1% DMSO). Insulin (800 pM) was used as a partial inhibitor of glucose production. H4-IIE cells purchased from ATCC (Manassas, Va.) were seeded at 100,000 cells/well in standard medium (DMEM/high glucose+10% FBS+1× Glutamax+antibiotics) on 96-well plates and allowed to adhere overnight at 37° C. in a humidified atmosphere of 5% CO2/95% air. Approximately 24 h after seeding, the medium was removed, cells rinsed with glucose free DMEM, and Glucose Production Medium (glucose free DMEM+2 mM sodium pyruvate+10 mM sodium lactate) was added. The cultures were placed at 37° C. in a humidified atmosphere of 5% CO2/95% air overnight. The next morning, the medium was removed and fresh Glucose Production Medium containing compounds was added. Insulin at 800 pM was added to control wells. Peptides (10 μM) in the absence or presence of insulin (800 pM) were added to test wells. Cells in the presence of compounds were placed at 37° C. in a humidified atmosphere of 5% CO2/95% air overnight. After 24 hour incubation, conditioned medium from each well was transferred to a fresh 96-well plate for quantitation of glucose content. Quantitation of glucose levels was determined using an Amplex Red Glucose Assay kit (Abacm; Cambridge, Mass.) according to the manufacturer's instructions using a Cytation 3 plate reader at 570 nm (BioTek, Winooski, Vt.). Absorbance values were expressed as a percent of untreated control cells (maximum glucose production) for peptide alone samples or insulin (800 pM) for peptides in the presence of insulin (800 pM. Glucose levels for insulin (800 pM) treatment were ˜80-90% of the untreated control values. The results are reported in Table 15.

[1] = tested on: WI-38 cells (human fetal lung fibroblast cells); assay: Fibroblast-to-myofibroblast transition assay, pro-collagen I alpha 1 expression; conditions: 10 μM peptide and 5 ng/ml TGF-β, 48 h, cell lysates
Method: The effect of the peptides on fibrosis can be assessed in vitro using a fibroblast-to-myofibroblast transition (FMT) assay and monitoring pro-collagen I alpha 1 expression produced by cultured cells such as human fetal lung fibroblast cells. Peptides were initially prepared as 10 mM stock solutions in DMSO or 1 mM stock in H2O and were used at a final concentration of 10 μM (0-0.1% DMSO). Transforming Growth Factor beta (TGF-β) was used as a potent inducer of FMT as measured by increased pro-collagen I alpha 1 expression. Human WI-38 cell line was purchased from American Type Culture Collection (Manassas, Va.). WI-38 cells were seeded in complete medium (DMEM/high glucose (4 g/L)+10% Fetal Bovine Serum+1% penicillin/streptomycin) at 40,000 cells/well on 48-well plates and placed at 37° C. in a humidified atmosphere of 5% CO2/95% air. The next day, the medium was removed, cells were rinsed twice with HBSS, and the medium replaced with Serum Restricted Medium (DMEM/high glucose (4 g/L)+0.2% Fetal Bovine Serum+1% penicillin/streptomycin). The cultures were placed at 37° C. in a humidified atmosphere of 5% CO2/95% air overnight. Following 24 h in Serum Restricted Medium, the medium was removed, and the following was added: fresh Serum Restricted Medium alone (no TGF-β control); fresh Serum Restricted Medium containing 5 ng/ml TGF-β (TGF-β control); or fresh Serum Restricted Medium containing 10 μM peptide and 5 ng/ml TGF-β. Cells were incubated for 48 h at 37° C. in a humidified atmosphere of 5% CO2/95% air, washed twice with cold HBSS and immediately lysed. Lysis and determination of pro-collagen I alpha 1 concentrations in the cell lysates were performed using a Pro-Collagen I Alpha 1 ELISA kit (Abcam; Cambridge, Mass.) according to the manufacturer's instructions; absorbance was measured using a Cytation 3 plate reader at 450 nm (BioTek, Winooski, Vt.).

[2] = tested on: Rat primary cortical neurons; assay: Neuroprotection against Aβ (1-42) toxicity in cultured neurons; conditions: Aβ (1-42) 20 μM + BDNF 50 ng/mL, 24 hours
Method: Rat primary cortical neurons were collected and cultured by methods well known in the art (Singer et al., 1999 and Callizot et al., 2013). The cells were seeded at a density of 25,000 per well in 96-well plates precoated with poly-L-lysine and cultured at 37° C. in an air (95%)-CO2 (5%) incubator. The medium was changed every 2 days. The cortical neurons were treated after 11 days of culture. The A13(1-42) was prepared using the procedure described by Callizot et al., 2013 to ensure monomeric peptide. Compounds and the positive control, BDNF (50 ng/ml), were dissolved in culture medium and then pre-incubated with primary cortical neurons for 1 hour before addition of A13(1-42) (20 μM). After 24 hours of treatment, the cell culture supernatant was removed and the cortical neurons were fixed by a cold solution of ethanol (95%) and acetic acid (5%) for 5 min at −20° C. After permeabilization with 0.1% of saponin, cells were incubated for 2 hours with mouse monoclonal antibody anti-microtubule-associated-protein 2 (MAP-2) at a dilution of 1/400 in PBS containing 1% fetal calf serum and 0.1% of saponin to stain cell bodies and neurites.
This antibody was detected with Alexa Fluor 488 goat anti-mouse IgG at the dilution 1/400 in PBS containing 1% FCS, 0.1% saponin, for 1 hour at room temperature. For each condition, images were obtained using ImageXpress (Molecular Devices) with 20× magnification. The total number of cells and extent of neurite network was determined using Custom Module Editor (Molecular Devices).

Row | Molecule | Procollagen I Alpha 1 Mean (SEM) [1] | Free Fatty Acid Levels, MEAN % ISO, +Insulin (3T3-L1 Mouse Adipocytes) [%] | Free Fatty Acid Levels, MEAN % ISO, −Insulin (3T3-L1 Mouse Adipocytes) [%] | Glucose Levels, MEAN % Control, +Insulin (H4IIE Rat Hepatoma Cells) [%] | Glucose Levels, MEAN % Control, −Insulin (H4IIE Rat Hepatoma Cells) [%] | other results
1 | CN(C)C(=N)N=C(N)N [metformin, reference compound] | – | – | – | – | – | glucose levels, % of the 0.1% DMSO treated control value (C2C12 Mouse Myoblasts): < 20%
2 | RVIRMCLNVGLLGEL(dA)G [SEQ ID NO: 27] (chain 1 RVIRMCLNVGLLGEL[dA]G; chain 2 RVIRMCLNVGLLGEL[dA]G; disulfide I:6-II:6) | 4120 (677) pg/mL | – | – | – | – | Free Fatty Acid Levels, MEAN % ISO, +Insulin (3T3-L1 Mouse Adipocytes; listed as 27): 28.2%; Free Fatty Acid Levels, MEAN % ISO, −Insulin (3T3-L1 Mouse Adipocytes; listed as 27): 94.5%; Glucose Levels, MEAN % Control, +Insulin (H4IIE Rat Hepatoma Cells; listed as 27): 54.3%; Glucose Levels, MEAN % Control, −Insulin (H4IIE Rat Hepatoma Cells; listed as 27): 108%
3 | RVIRMCLNVGLNGEL(dA)E (RVIRMCLNVGLNGEL[dA]E) [SEQ ID NO: 20] | 4680 (377) pg/mL | 97.5 | 102 | 75.1 | 110 | –
4 | {PEG12}KRVIRMCLGVGLLGDLAG ([PEG12′]KRVIRMCLGVGLLGDLAG) [SEQ ID NO: 16] | 3980 (569) pg/mL | 33.4 | 54.6 | 79.8 | 104 | –
5 | BDNF: positive control, BDNF (50 ng/ml) (protein, UniProt P23560 19-247, looked up) Neurotrophic factor BDNF …: APMKEANIRGQGGLAYPGVRTHGTLESVNGPKAGSRGLTSLADTFEHVIEELLDEDQKVRPNEENNKDADLYTSRVMLSSQVPLEPPLLFLLEEYKNYLDAANMSMRVRRHSDPARRGELSVCDSISEWVTAADKKTAVDMSGGTVTVLEKVPVSKGQLKQYFYETKCNPMGYTKEGCRGIDKRHWNSQCRTTQSYVRALTMDSKKRIGWRFIRIDTSCVCTLTIKRGR | – | – | – | – | – | Percent Protection of Neuronal Network [2]: 95%; Percent Survival of Neurons [2]: 98%
